Measurements from patent US20220204510A1, “2,3-DIHYDRO-1H-PYRROLIZINE-7-FORMAMIDE DERIVATIVE AND APPLICATION THEREOF” (CHIA TAI TIANQING PHARMACEUTICAL GROUP CO., LTD., priority 2018, published 2022).
Where two headings read alike, the source gives them in different places.

Columns and labels:
[1] = Metabolic stability in liver microsomes; assay type: in vitro ADME; settings: for half-life at 1 μM: 1 μM compound, 0.5 mg/mL; for microsomal CLint at 1 μM: read-out: CLint(mic)
Method: Experimental objective: to evaluate the metabolic stability of test compounds 18 and 25 in liver microsomes of rats, beagle dogs and cynomolgus monkeys
(§1) Experimental procedures: first, the test compound (10 mM) was subjected to a two-step dilution, where the compound was diluted to an intermediate concentration of 100 μM with 100% methanol, and the working solution was diluted to 10 μM with a potassium phosphate buffer; eight 96-well incubation plates were prepared, and named T0, T5, T10, T20, T30, T60, Blank and NCF60, respectively; the reaction time points corresponding to the first 6 incubation plates were 0, 5, 10, 20, 30 and 60 min, respectively; for the Blank plate, neither the test compound nor a control compound was added, and for the NCF60 plate, potassium phosphate buffer was used in an incubation of 60 min in place of a NADPH regeneration system solution; 10 μL of the test compound working solution and 80 μL of the microsome working solution (liver microsome protein concentration was 0.625 mg/mL) were added to the T0, T5, T10, T20, T30, T60 and NCF60 plates, while only the microsome working solution was added to the Blank plate, and all the incubation plates were then placed in a 37° C. water bath for pre-incubation for about 10 min; after the pre-incubation, 10 μL of a NADPH regeneration system working solution was added into each sample well of all the plates except the NCF60 plate and T0 plate to start the reaction, and 10 μL of potassium phosphate buffer was added to each well of the NCF60 plate; therefore, in the test compound or control compound samples, the final reaction concentrations of the compound, testosterone, diclofenac and propafenone were 1 μM, the concentration of the liver microsomes was 0.5 mg/mL, and the final concentrations of DMSO and acetonitrile in the reaction system were 0.01% (v/v) and 0.99% (v/v), respectively; after incubation for an appropriate time (such as 5, 10, 20, 30, and 60 min), 300 μL of a stop solution (acetonitrile solution containing 100 ng/mL tolbutamide and 100 ng/mL labetalol) was added to each sample well to stop the reaction; 300 μL of the stop solution and then 10 μL of the NADPH working solution were added to the T0 plate, all the sample plates were shaken and centrifuged in a centrifuge (3220×g) for 20 min, and then 100 μL of supernatant was taken from each well and diluted with 300 μL of pure water for liquid chromatography-tandem mass spectrometry analysis.

[2] = Metabolic stability in liver microsomes; assay type: in vitro ADME, human; settings: for half-life at 1 μM: Human liver microsomes, 1 μM compound, 0.5 mg/mL; for CLint scaled at 1 μM / microsomal CLint at 1 μM: human liver microsomes; for microsomal CLint at 1 μM: read-out: CLint(mic)
Method: (§2) Experimental objective: to evaluate the metabolic stability of the test compound in CD-1 mice and human liver microsomes
as §1

[3] = Metabolic stability in liver microsomes; assay type: in vitro ADME; settings: mouse, CD-1 mice liver microsomes; for half-life at 1 μM: 1 μM compound, 0.5 mg/mL; for microsomal CLint at 1 μM: read-out: CLint(mic)
Method: as §2, §1

hERG potassium channel = hERG potassium channel (Homo sapiens, UniProt Q12809); test: Inhibition test of the hERG potassium channel (automatic patch clamp, CHO-hERG cells); assay type: cell-based; settings: QPatch whole-cell patch clamp, room temperature
Chain of hERG potassium channel (Q12809 whole entry): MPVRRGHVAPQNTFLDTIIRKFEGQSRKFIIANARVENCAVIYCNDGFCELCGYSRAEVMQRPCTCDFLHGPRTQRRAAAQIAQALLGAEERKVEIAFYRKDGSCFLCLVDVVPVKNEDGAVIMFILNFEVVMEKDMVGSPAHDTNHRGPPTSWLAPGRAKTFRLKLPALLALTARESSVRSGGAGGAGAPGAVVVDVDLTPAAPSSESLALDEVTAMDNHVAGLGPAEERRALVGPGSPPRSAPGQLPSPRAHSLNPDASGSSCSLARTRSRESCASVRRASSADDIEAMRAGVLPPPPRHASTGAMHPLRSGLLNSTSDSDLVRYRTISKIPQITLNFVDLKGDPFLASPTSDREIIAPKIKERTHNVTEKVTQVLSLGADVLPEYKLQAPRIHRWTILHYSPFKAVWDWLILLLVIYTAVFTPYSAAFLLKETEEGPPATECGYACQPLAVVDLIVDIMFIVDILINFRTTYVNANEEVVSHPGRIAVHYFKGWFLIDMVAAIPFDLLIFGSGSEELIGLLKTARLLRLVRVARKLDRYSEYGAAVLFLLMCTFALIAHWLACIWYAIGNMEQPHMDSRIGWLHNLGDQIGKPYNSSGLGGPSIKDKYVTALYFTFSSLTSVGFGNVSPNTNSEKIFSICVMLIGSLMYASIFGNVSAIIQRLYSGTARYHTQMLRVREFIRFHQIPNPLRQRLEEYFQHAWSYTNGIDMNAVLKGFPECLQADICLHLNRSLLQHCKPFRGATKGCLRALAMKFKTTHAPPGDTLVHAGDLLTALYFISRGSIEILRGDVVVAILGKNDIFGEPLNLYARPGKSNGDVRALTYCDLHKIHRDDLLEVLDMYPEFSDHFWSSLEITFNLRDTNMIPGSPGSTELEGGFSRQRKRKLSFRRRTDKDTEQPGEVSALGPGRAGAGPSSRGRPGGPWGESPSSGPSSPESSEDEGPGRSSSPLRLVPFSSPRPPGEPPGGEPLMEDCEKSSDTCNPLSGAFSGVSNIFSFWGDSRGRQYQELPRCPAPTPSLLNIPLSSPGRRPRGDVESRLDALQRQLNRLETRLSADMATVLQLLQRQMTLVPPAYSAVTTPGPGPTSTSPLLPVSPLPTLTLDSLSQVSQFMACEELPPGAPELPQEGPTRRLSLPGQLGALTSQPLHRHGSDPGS
Method: To assay the effect of the compound disclosed herein on hERG potassium channel by using automatic patch-clamp method.
The cells stably expressing the hERG potassium channel used in the experiment were CHO-hERE from Aviva Biosciences. CHO-hERG was cultured at 37° C. in 5% CO2.
The CHO-hERG cells used in the experiment were cultured for at least two days, and the cell density reached 75% or more. Before the experiment, the cells were digested with TrypLE, and then the collected cells were resuspended in extracellular fluid.
The extracellular fluid needed to be prepared once a month. The intracellular fluid must be frozen in aliquots at −20° C.
The test compound and its positive control amitriptyline were dissolved in DMSO to obtain a stock solution at a certain concentration. […]
With a holding potential of −80 mv, a voltage stimulation of −50 my was applied for 80 ms to record the cell leakage current value; then hERG channel was opened by a depolarization to +20 my for 4800 ms and hERG tail current was elicited by a repolarization to −50 my for 5000 ms and recorded; and finally, the voltage was restored to the holding potential of −80 my and maintained for 3100 ms. […]
In each complete current recording, the inhibition percentage of each compound at the action concentration could be calculated based on the percentage of peak current in the negative control. […]

[4] = Sprague-Dawley (SD), rat, SD rats liver microsomes
[5] = cynomolgus monkey, Cynomolgus monkeys liver microsomes
[6] = dog, Beagle dogs liver microsomes

Row | Compound | CLint scaled at 1 μM [1, 4] | half-life at 1 μM [1, 4] | microsomal CLint at 1 μM [1, 4] | CLint scaled at 1 μM [1, 5] | half-life at 1 μM [1, 5] | microsomal CLint at 1 μM [1, 5] | CLint scaled at 1 μM [1, 6] | half-life at 1 μM [1, 6] | microsomal CLint at 1 μM [1, 6] | half-life at 1 μM [2] | CLint scaled at 1 μM [2] | microsomal CLint at 1 μM [2] | CLint scaled at 1 μM [3] | half-life at 1 μM [3] | microsomal CLint at 1 μM [3] | IC50 (hERG potassium channel)
1 | C[C@]1(NC(=O)C(=O)c2c(Cl)c(C(=O)Nc3ccc(F)c(F)c3)c3n2CCC3)CC[C@H](CC(=O)O)CC1 [Compound 18] | < 17.3 mL/min/kg | > 2.42 h | < 9.6 µL/min/mg | < 13 mL/min/kg | > 2.42 h | < 9.6 µL/min/mg | < 13.8 mL/min/kg | > 2.42 h | < 9.6 µL/min/mg | > 2.42 h | < 8.6 mL/min/kg | < 9.6 µL/min/mg | < 38 mL/min/kg | > 2.42 h | < 9.6 µL/min/mg | > 40 µM
2 | C[C@]1(NC(=O)C(=O)c2c(Cl)c(C(=O)Nc3cc(F)c(F)c(F)c3)c3n2CCC3)CC[C@H](CC(=O)O)CC1 [Compound 25] | < 17.3 mL/min/kg | > 2.42 h | < 9.6 µL/min/mg | < 13 mL/min/kg | > 2.42 h | < 9.6 µL/min/mg | < 13.8 mL/min/kg | > 2.42 h | < 9.6 µL/min/mg | > 2.42 h | < 8.6 mL/min/kg | < 9.6 µL/min/mg | < 38 mL/min/kg | > 2.42 h | < 9.6 µL/min/mg | > 40 µM
